{"source": "patent US20210315992A1", "about": "“ADJUVANT EFFECT OF THE TLR1/2 AGONIST DIPROVOCIM SYNERGIZES WITH CHECKPOINT-INHIBITING ANTIBODIES TO ELIMINATE DISEASE” (The Board of Regents of the University of Texas System, priority 2018, published 2021)", "key": {"B16-OVA melanoma [1]": {"tested_on": "B16-OVA melanoma", "assay": "B16-OVA melanoma, pre-tumor treatment (immunization on day of tumor inoculation)", "assay_type": "in vivo, mouse", "method": "FIG. 4A through FIG. 4J illustrate inhibition of B16-OVA tumor growth by pre- or post-tumor treatment with Diprovocim-adjuvanted tumor vaccination and checkpoint blockade. FIG. 4A provides a schematic of pre- and post-tumor treatment protocols. C57BL/6J mice (n=8 mice per treatment) were injected s.c. with 2×10^5 B16-OVA melanoma cells on day 0. For pre-tumor treatment, mice were immunized i.m. with OVA (100 μg) mixed with vehicle or Diprovocim (10 mg/kg) or alum (2 mg/kg) on the same day prior to tumor injection. Mice received a booster immunization seven days later in which anti-PD-L1 (200 μg) was administered on days 3, 6 and 9 after tumor inoculation by i.p. injection. For post-tumor treatment, initial immunization was on day 3 after tumor inoculation, with a booster seven days later. Anti-PD-L1 (200 μg) was administered on days 3, 6, 9, 12, and 15 after tumor inoculation by i.p. injection. FIG. 4B through FIG. 4F illustrate pre-tumor treatment results. Tumor volume (FIG. 4B and FIG. 4D) and percent mouse survival (survivors/total mice) (FIG. 4C and FIG. 4E). […] FIG. 4G through FIG. 4J illustrate a comparison of pre-tumor (FIG. 4G and FIG. 4H) vs. post-tumor treatment (FIG. 4I and FIG. 4J). Tumor volume (FIG. 4G and FIG. 4I) and percent mouse survival (survivors/total mice) (FIG. 4H and FIG. 4J) are shown. P values for tumor volume analysis apply to the final time point as indicated in graphs and were calculated by Student's t test. P values for survival analysis were calculated by Kaplan-Meier analysis. All results are representative of two independent studies.\nC57BL/6J mice (n=8) were injected s.c. with 2×10^5 B16-OVA melanoma cells on day 0. Anti-PD-L1 (200 μg) or mouse IgG2a isotype control antibody was administered on days 3, 6 and 9 after tumor inoculation by i.p. injection. FIG. 8A is a graph of tumor volume versus time and FIG. 8B is a graph showing percent mouse survival (survivors/total mice) versus time. The control values in both plots are shown above those for the anti-PD-L1 values where the two values diverge. […] Results are representative of two independent studies.\nB16-OVA cells (B16F10 melanoma cells stably expressing chicken ovalbumin) were grown in DMEM containing 10% vol/vol FBS. A total of 2×10^5 B16-OVA cells in 100 μL PBS were injected s.c. into the right flank of 8-12 week old male C57BL/6J mice to establish tumors (n=8 mice per group). For pretreatment, 10 mg/kg Diprovocim-1 or 2 mg/kg alum with or without OVA (100 μg) was injected i.m. into mice on the same day as tumor inoculation (day 0). Mice received a booster shot seven days after the first immunization. On day 3, 6 and 9, some groups were injected i.p. with 200 μg checkpoint inhibitor (anti-mPD-L1, BioXcell) in 100 μl saline.\nTumors were measured with a digital caliper (Fisher) and the tumor sizes were calculated using the following formula: volume=0.5×length×width^2. Mice were sacrificed when the tumor length or width reached 2 cm."}, "B16-OVA melanoma [2]": {"tested_on": "B16-OVA melanoma", "assay": "B16-OVA melanoma, post-tumor treatment (immunization day 3 after tumor inoculation)", "assay_type": "in vivo, mouse", "settings": "post-tumor treatment", "quoted_text": "C57BL/6J mice (n=8 mice per treatment) were injected s.c. with 2×10^5 B16-OVA melanoma cells on day 0. For pre-tumor treatment, mice were immunized i.m. with OVA (100 μg) mixed with vehicle or Diprovocim (10 mg/kg) or alum (2 mg/kg) on the same day prior to tumor injection. Mice received a booster immunization seven days later in which anti-PD-L1 (200 μg) was administered on days 3, 6 and 9 after tumor inoculation by i.p. injection. For post-tumor treatment, initial immunization was on day 3 after tumor inoculation, with a booster seven days later. Anti-PD-L1 (200 μg) was administered on days 3, 6, 9, 12, and 15 after tumor inoculation by i.p. injection. […] P values for tumor volume analysis apply to the final time point as indicated in graphs and were calculated by Student's t test. P values for survival analysis were calculated by Kaplan-Meier analysis. All results are representative of two independent studies.\nFor post-treatment, 10 mg/kg Diprovocim-1 or 2 mg/kg Alum with OVA (100 μg) was injected i.m. into mice on day 3 after tumor inoculation. Mice received a booster shot seven days after the first immunization. On day 3, 6, 9, 12 and 15 after tumor inoculation, mice were also injected i.p. with 200 μg anti-mPD-L1 in 100 μl saline.\nTumors were measured with a digital caliper (Fisher) and the tumor sizes were calculated using the following formula: volume=0.5×length×width^2. […]"}, "human THP-1 cells": {"tested_on": "human THP-1 cells", "assay": "TNF production by PMA-differentiated human THP-1 cells (ELISA)", "assay_type": "cell-based", "settings": "4 hours", "method": "(§1) For murine BMDCs, bone morrow cells were cultured in Petri dishes in 10 ml DMEM cell culture medium containing 10 ng/ml of murine GM-CSF (R&D Systems). On day 3 of culture, this was replaced with fresh GM-CSF medium. Loosely adherent cells were transferred to a fresh Petri dish and cultured for an additional 4 d. Human PBMC were purchased from Stemcell Technologies. THP-1 (ATCC) cells were differentiated by treatment with 100 nM PMA (Sigma) in RPMI cell culture medium [RPMI containing 10% vol/vol FBS (Gemini Bio Products), 1% penicillin and streptomycin (Life Technologies)] for 24 hours. After that, cells were washed with PBS and cultured in fresh RPMI cell culture medium for 24 hours before use in studies.\n(§2) Cells were seeded onto 96-well plates at 1×10^5 cells per well and stimulated with a Diprovocim (dissolved in DMSO, and final DMSO concentrations (0.2%) were kept constant in all experiments) for 4 h. Mouse TNF, IL-6, or IFN-β, or human TNF in the supernatants were measured by ELISA kits according to the manufacturer's instructions (eBioscience and PBL Assay Science). Pretreatment with 20 μg/ml anti-TLR1, anti-TLR2 or isotype control antibody (eBioscience) was for 1 hour. Unless otherwise indicated, mouse cells were from wild type C57BL/6J mice."}, "C57BL/6J mice": {"tested_on": "C57BL/6J mice", "assay": "Immunization with OVA and measurement of antibody response", "assay_type": "in vivo, mouse", "method": "EndoFit ovalbumin (OVA) with 98% purity minimum (SDS-PAGE) and endotoxin levels <1 EU/mg was purchased from Invivogen. Mice (4 mice per group) were immunized i.m. with 100 μg OVA mixed with vehicle (DMSO:Tween 80:saline=1:1:8), with 10 mg/kg Diprovocim, or with 2 mg/kg Alum (Alhydrogel adjuvant 2%, Invivogen). After 14 days, serum titers of OVA-specific IgG, IgG1, or IgG2b (SouthernBiotech) were measured by ELISA."}, "mouse BMDC": {"tested_on": "mouse BMDC", "assay": "TNF production by mouse bone marrow-derived dendritic cells (ELISA)", "assay_type": "cell-based", "settings": "4 hours, read-out: EC50, dose-dependent TNF production", "method": "as §1, §2"}}, "note": "Entries after “also recorded” stand apart in the source; their conditions may differ."}
{"smiles": "O=C(N[C@H]1C[C@@H]1c1ccccc1)[C@@H]1CN(C(=O)c2ccc(C(=O)N3C[C@@H](C(=O)N[C@H]4C[C@@H]4c4ccccc4)[C@H](C(=O)N[C@H]4C[C@@H]4c4ccccc4)C3)cc2)C[C@H]1C(=O)N[C@H]1C[C@@H]1c1ccccc1", "note": "[Diprovocim-1, (3S,3'S,4S,4'S)-1,1′-Terephthaloylbis(N^3,N^4-bis((1S,2R)-2-phenylcyclo-propyl)pyrrolidine-3,4-dicarboxamide)]", "values": [{"measurement": "tumor growth or mouse survival", "setting": "B16-OVA melanoma [1]; Diprovocim alone (no OVA) combined with anti-PD-L1 treatment", "result": "no effect"}, {"measurement": "effect on tumor growth, survival rate, and survival time compared with alum", "setting": "B16-OVA melanoma [1]; pre-tumor treatment", "result": "superior to that of alum"}, {"measurement": "tumor growth rates and survival times compared with vehicle alone", "setting": "B16-OVA melanoma [1]; single agent, no anti-PD-L1, i.m. day 0 and booster day 7", "result": "similar"}, {"measurement": "effect on tumor growth, survival rate, and survival time compared with alum", "setting": "B16-OVA melanoma [2]", "result": "superior to that of alum"}, {"measurement": "EC50", "setting": "human THP-1 cells; Homo sapiens, THP-1 cells, read-out: EC50, dose-dependent TNF production", "result": 0.11, "unit": "nM"}, {"measurement": "activation of TNF production compared with Pam3CSK4", "setting": "human THP-1 cells; human THP-1 cells", "result": "more potent and efficacious; also recorded: more potent than Pam3CSK4"}, {"measurement": "adjuvant activity in antigen-specific antibody production in TLR2-deficient mice", "setting": "C57BL/6J mice; Tlr2−/− mice", "result": "abrogated"}, {"measurement": "serum OVA-specific IgG compared to OVA plus vehicle", "setting": "C57BL/6J mice; wild type mice, i.m. with 100 μg OVA, Diprovocim 10 mg/kg or alum 2 mg/kg, day 14", "result": "highly elevated"}, {"measurement": "EC50", "setting": "mouse BMDC", "result": 6.7, "unit": "nM"}]}
